pIC50: −log10 of the molar value.
Columns and labels:
Format in all cases: in vitro ADME
[1] = biological target: T1, cytochrome P450 1A2 (Homo sapiens, UniProt P05177); assay: Cytochrome P450 cocktail inhibition assay, 1A2 (phenacetin); conditions: human liver microsomes 0.1 mg/mL; read-out: CYP Inhibition (1A2)
T1 construct: human liver microsomes (HLM; 0.1 mg/mL); from tissue; host or cells: human liver microsomes
T1 sequence (P05177 1-516): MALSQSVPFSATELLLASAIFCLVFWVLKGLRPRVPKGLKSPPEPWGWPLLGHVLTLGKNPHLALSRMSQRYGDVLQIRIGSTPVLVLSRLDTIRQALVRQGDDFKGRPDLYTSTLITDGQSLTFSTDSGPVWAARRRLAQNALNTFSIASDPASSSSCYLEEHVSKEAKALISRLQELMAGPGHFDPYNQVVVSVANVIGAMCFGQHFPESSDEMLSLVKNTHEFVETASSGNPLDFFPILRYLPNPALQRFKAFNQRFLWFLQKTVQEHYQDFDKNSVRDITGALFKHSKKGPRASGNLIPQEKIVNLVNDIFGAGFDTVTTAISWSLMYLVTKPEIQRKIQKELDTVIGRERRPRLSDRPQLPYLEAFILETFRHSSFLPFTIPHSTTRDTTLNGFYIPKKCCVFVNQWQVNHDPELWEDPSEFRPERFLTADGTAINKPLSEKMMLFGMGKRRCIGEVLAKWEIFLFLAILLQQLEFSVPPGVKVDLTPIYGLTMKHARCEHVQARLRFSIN
Description: (§1) Solutions of substrates for cytochrome P450 enzymes (1A2: Phenacetin, 10 μM; 2C9: Diclofenac, 5 μM; 2D6: Dextromethorphan, 5 μM; 3A4: Midazolam, 2 μM; as a mixture), test compound (VU6028418; multiple concentrations), and the positive control for pan-P450 inhibition (miconazole; multiple concentrations) were prepared. A reaction mixture of assay buffer (100 mM Kpi at pH 7.4), human liver microsomes (HLM; 0.1 mg/mL), and the substrate mixture were aliquoted into a 96-deepwell plate. The test compound and control were then added to the plate such that the final concentration of test compound ranged from 0.1-30 μM (two replicates per concentration). The assay plate was vortexed (briefly) and pre-incubated at 37° C. in an orbital shaker for 15 minutes. The reaction was initiated by addition of NADPH (1 mM, final concentration) and continued for 8 min before it was quenched by acetonitrile (2× volume) containing an LCMS internal standard (carbamazepine, 50 nM). The plate was then centrifuged (4000 rcf, 4° C., 10 min), and the resulting supernatant was diluted with water (1× volume) for LC-MS/MS. Assay samples were analyzed via electrospray ionization on an AB Sciex API-4000 (Foster City, Calif.) triple-quadrupole mass spectrometer coupled to Agilent Technologies 1290 Infinity series pumps (Santa Clara, Calif.), and a Leap Technologies CTC PAL auto -sampler (Carrboro, NC). Analytes were separated by gradient elution on a Phenomenex Kinetex (C18 2.1×50 mm 5 μm) column (Torrance, Calif.) thermostated at 40° C. The HPLC mobile phase A was 0.1% formic acid in water (pH unadjusted), and the mobile phase B was 0.1% formic acid in acetonitrile (pH unadjusted). […] The total run time was 2.5 min and the HPLC flow rate was 0.5 mL/min. The source temperature was set at 500° C. and mass spectral analyses were performed using multiple reaction monitoring (MRM) with mass transitions specific to each substrate's metabolite utilizing a Turbo-Ionspray® source in positive ionization mode (5.0 kV spray voltage). The test compound and control IC50 values for each enzyme were obtained by quantitating the inhibition of metabolite formation for each substrate. A 0 μM test compound (or control) conditions represented 100% enzymatic activity, and the effect of increasing test compound concentrations on enzymatic activity was then calculated from the % of control activity. Inhibition curves were fitted using XLfit 5.2.2 (four-parameter logistic model, equation 201) in order to calculate the concentration that produced half-maximal inhibition (IC50) of each enzyme.

[2] = biological target: T2, cytochrome P450 2D6 (Homo sapiens, UniProt P10635); assay: Cytochrome P450 cocktail inhibition assay, 2D6 (dextromethorphan); conditions: human liver microsomes 0.1 mg/mL; read-out: CYP Inhibition (2D6)
T2 construct: human liver microsomes (HLM; 0.1 mg/mL); from tissue; host or cells: human liver microsomes
Description: as §1

[3] = biological target: T3, cytochrome P450 3A4 (Homo sapiens, UniProt P08684); assay: Cytochrome P450 cocktail inhibition assay, 3A4 (midazolam); conditions: human liver microsomes 0.1 mg/mL; read-out: CYP Inhibition (3A4)
T3 construct: human liver microsomes (HLM; 0.1 mg/mL); from tissue; host or cells: human liver microsomes
Description: as §1

[4] = biological target: T4, P-gp (Homo sapiens, UniProt P08183); assay: P-gp efflux in MDR1-MDCK cell monolayers; conditions: dog, pH 7.4, MDCK-MDR1, 5 μM
T4 construct: expressed in transfected cells; host or cells: MDR1-MDCK
Description: MDR1-MDCK cell monolayers were grown to confluence on collagen-coated, microporous membranes in 12-well assay plates. The permeability assay buffer was Hanks' balanced salt solution containing 10 mM HEPES and 15 mM glucose at a pH of 7.4. The buffer in the receiver chamber also contained 1% bovine serum albumin. The dosing solution concentration was 5 μM of test article in the assay buffer. Cell monolayers were dosed on the apical side (A- to -B) or basolateral side (B- to -A) and incubated at 37° C. with 5% CO2 in a humidified incubator. Samples were taken from the donor and receiver chambers at 120 minutes Each determination was performed in duplicate. The flux of lucifer yellow was also measured post-experimentally for each monolayer to ensure no damage was inflicted to the cell monolayers during the flux period. All samples were assayed by LC-MS/MS using electrospray ionization.

T2 sequence (P10635 whole entry): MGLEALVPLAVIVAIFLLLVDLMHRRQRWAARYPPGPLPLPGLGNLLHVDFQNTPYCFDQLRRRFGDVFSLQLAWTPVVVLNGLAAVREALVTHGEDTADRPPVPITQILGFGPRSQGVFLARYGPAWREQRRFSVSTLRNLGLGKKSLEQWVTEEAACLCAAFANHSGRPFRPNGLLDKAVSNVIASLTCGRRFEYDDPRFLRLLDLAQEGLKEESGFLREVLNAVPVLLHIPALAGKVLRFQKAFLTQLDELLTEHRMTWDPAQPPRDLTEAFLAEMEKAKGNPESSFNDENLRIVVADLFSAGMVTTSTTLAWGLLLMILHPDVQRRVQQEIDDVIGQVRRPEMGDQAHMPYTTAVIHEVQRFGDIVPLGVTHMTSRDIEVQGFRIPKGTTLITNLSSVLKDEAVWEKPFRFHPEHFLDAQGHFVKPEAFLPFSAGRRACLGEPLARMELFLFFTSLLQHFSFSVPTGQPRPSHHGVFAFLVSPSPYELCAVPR
T4 sequence (P08183 whole entry): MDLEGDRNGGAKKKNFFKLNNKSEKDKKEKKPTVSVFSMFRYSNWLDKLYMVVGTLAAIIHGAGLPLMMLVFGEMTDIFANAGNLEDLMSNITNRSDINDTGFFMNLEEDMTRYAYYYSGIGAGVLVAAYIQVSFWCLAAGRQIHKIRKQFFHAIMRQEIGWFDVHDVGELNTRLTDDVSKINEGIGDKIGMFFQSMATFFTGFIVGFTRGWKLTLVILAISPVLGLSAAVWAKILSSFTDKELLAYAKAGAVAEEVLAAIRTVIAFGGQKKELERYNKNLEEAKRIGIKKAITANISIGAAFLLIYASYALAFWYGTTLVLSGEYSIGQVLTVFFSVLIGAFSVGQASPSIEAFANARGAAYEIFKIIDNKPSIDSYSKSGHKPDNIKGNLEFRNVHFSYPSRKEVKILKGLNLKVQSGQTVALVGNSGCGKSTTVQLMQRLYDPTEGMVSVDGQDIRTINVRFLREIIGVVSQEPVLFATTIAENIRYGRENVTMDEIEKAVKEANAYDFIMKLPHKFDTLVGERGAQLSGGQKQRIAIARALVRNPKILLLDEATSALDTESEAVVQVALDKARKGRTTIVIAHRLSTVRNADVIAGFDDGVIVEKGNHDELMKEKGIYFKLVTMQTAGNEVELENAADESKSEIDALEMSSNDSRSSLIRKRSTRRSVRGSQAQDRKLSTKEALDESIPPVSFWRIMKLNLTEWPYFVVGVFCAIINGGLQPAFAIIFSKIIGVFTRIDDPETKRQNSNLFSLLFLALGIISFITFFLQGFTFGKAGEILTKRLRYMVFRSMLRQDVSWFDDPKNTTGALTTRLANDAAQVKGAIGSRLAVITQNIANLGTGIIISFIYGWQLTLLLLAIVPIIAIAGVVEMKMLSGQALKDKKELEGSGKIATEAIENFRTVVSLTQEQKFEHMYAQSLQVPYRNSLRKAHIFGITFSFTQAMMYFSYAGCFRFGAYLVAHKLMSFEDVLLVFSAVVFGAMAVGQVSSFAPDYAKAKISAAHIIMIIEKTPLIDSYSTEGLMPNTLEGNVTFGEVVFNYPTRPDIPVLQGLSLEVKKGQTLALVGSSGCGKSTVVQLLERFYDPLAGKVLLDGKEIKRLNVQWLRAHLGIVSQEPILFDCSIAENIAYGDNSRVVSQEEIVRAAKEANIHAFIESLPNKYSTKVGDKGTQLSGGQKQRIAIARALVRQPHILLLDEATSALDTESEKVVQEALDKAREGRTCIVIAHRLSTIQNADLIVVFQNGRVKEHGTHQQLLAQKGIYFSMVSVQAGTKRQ
T3 sequence (P08684 whole entry): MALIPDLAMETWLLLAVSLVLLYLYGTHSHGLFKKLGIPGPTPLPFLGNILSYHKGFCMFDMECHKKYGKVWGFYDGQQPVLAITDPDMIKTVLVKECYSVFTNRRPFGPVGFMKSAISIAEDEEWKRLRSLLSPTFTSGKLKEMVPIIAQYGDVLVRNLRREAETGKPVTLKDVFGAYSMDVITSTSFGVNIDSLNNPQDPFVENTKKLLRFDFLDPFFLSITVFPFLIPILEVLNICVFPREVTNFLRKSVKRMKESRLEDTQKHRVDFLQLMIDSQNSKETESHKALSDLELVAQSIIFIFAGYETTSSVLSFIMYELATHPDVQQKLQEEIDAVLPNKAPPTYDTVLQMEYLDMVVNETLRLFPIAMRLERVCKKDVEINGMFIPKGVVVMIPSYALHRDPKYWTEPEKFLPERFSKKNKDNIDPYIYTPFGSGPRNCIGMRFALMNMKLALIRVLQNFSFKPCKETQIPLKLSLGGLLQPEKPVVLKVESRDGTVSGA

Row | Structure (SMILES) | pIC50 [1] | pIC50 [2] | pIC50 [3] | efflux ratio at 120 min, 5 μM [4]
1 | Fc1cc(F)c(F)c(-c2ccc(N[C@H]3C[C@@H]4CN(CC5CCOCC5)C[C@@H]4C3)nn2)c1 [Compound 1, (3aR,5s,6aS)-2-((tetrahydro-2H-pyran-4-yl)methyl)-N-(6-(2,3,5-trifluorophenyl)pyridazin-3-yl)octahydrocyclopenta[c]pyrrol-5-amine] | < 4.52 | < 4.52 | < 4.52 | 8.9
2 | Fc1cc(F)c(F)c(-c2ccc(N[C@H]3C[C@@H]4CN(Cc5ccccn5)C[C@@H]4C3)nn2)c1 [Compound 2, (3aR,5s,6aS)-2-(pyridin-2-ylmethyl)-N-(6-(2,3,5-trifluorophenyl)pyridazin-3-yl)octahydrocyclopenta[c]pyrrol-5-amine] | 4.65 | < 4.52 | < 4.52 | 2.6

Reference: patent publication US20230150986A1, “ANTAGONISTS OF THE MUSCARINIC ACETYLCHOLINE RECEPTOR M4” (Vanderbilt University, priority 2019, published 2023)
